# Data from patent US20130236568A1, “PHOSPHAPLATINS HAVING ANTI-ANGIOGENIC, ANTI-METASTATIC, AND PRO-APOPTOTIC PROPERTIES AND USES THEREOF” (Ohio University, priority 2011, published 2013).
# Columns and labels:
# Format in all cases: cell-based, human
# A2780 cells = assay: Cell death detection assay with ELISA, A2780 cells; conditions: 24 hr
# Experimental: In these experiments, ovarian cancer cells were treated with pyrodach-4 in the presence and absence of inhibitors PFT-α (an inhibitor p53) and LY29400 (an inhibitor of PI3K).
# Cells were treated with compounds for 24 hr. The different treatment groups from left to right are: control, 7 μM cisplatin, Con+PFT-α, 180 μM D4, 180 μM D4+PFT-α, 180 μM D4+LY294002. Statistical analysis was conducted using the Tukey test. N=3 and P<0.05. In the figure, “*” indicates values significant from untreated control.
# A2780 and A2780/C30 cells were grown in monolayers, trypsinized and suspended in supplemented RPMI 1640 media as described in Example 5. All the treatments on the Fc/A2780 and Fc/A2780/C30 cell samples were carried out in triplicate. The ELISA was performed according to the manufacturer's instructions. Briefly, 50,000 cells were plated for each treatment and the cells were allowed to adhere for 4-6 hours. Cells were then either incubated with media alone (untreated sample) or with pyrodach-4 or cisplatin in the concentrations indicated above. […] The absorbances were measured at 405 and 490 nm for each treatment type using SPECTRA Max M2 multichannel fluorescence plate reader (Molecular Devices, Sunnyvale, Calif.). The absorbances of the treated samples were normalized to the substrate solution. […]
# BID = assay: Expression of key genes with and without p53 inhibitor (Table 3): BID; conditions: positive = manifold increase, negative = decrease vs untreated cells
# Experimental: (§1) Quantitative real-time PCR experiments were performed to estimate the expression of a selection of targeted genes. HUVEC cells (Lonza Walkersville, Frederick, Md.) were cultured on 0.1% gelatin-coated petri dishes by following standard protocols recommended by the vendor in a humidified incubator by maintaining 5% CO2 at 37° C. Human epithelial ovarian cancer cells (A2780) and cisplatin-resistant cells (A2780/C30) were cultured in RPMI 1640 with or without cisplatin (7 μM) and pyrodach-4 (180 μM) for 0, 3, 12 and 24 hours. […] HUVECs were treated with or without cisplatin (7 μM) or pyrodach-4 (90 or 180 μM) for various durations ranging from 1 hr. to 6 hrs.
# (§2) Both treated and untreated cancer cells were maintained in RPMI 1640 medium with 10% fetal bovine serum, 2 μmol L-glutamine, 100 units/mL penicillin-streptomycin and 0.25 units/mL insulin solution, at 37° C. with 5% CO2. RNA was isolated from both the treated and untreated cells. […] The quantity and purity of RNA were determined by UV spectroscopy (NanoDrop 2000 Thermo Scientific, Wilmington, Del.). A minimum absorbance ratio index (ratio of the absorbance measured at 260 nm over that at 280 nm) of 1.9 was used as an acceptable purity. […] The target gene was labeled with a blue dye (FAM, absorbance: 494 nm, emission: 518 nm) while the reference gene was tagged with a green dye (VIC, absorbance: 538 nm, emission: 554 nm). […]
# PTEN = assay: Expression of key genes with and without p53 inhibitor (Table 3): PTEN; conditions: positive = manifold increase, negative = decrease vs untreated cells
# Experimental: as §1, §2
substance,measurement,setting,value
"trans-(±)-1,2-cyclohexanediamine-trans-dihydroxo(pyrophosphato) platinum(IV) [Pyrodach-4]","Overall apoptotic cell death in the presence of inhibitors, compared to cisplatin",A2780 cells; 180 μM D4 with PFT-α 15 μM or LY294002 30 μM vs 7 μM cisplatin,remained extremely high compared to cisplatin
same,Effect of p53 and PI3K inhibitors on apoptotic cell death (ELISA absorbance),A2780 cells; 180 μM D4 with PFT-α 15 μM or LY294002 30 μM,some reduction in cell death
same,Expression of BID,BID; Pyrodach-4 + PFT-α,1.0
same,Expression of BID,BID; Pyrodach-4 treatment only,1.8
same,Expression of PTEN,PTEN; Pyrodach-4 + PFT-α,−1.3
same,Expression of PTEN,PTEN; Pyrodach-4 treatment only,5.5
